Laboratory results taken from patent EP2915814A2, “Crystalline salts of sitagliptin” (priority 2008, dated 2010).
Structures can show the parent of a compound that is named as a salt. Where two headings read alike, the source gives them in different places. Marks after values point to notes of the source that are not given here.

Columns and labels:
[1] = Solubility in water / aqueous solution; type: physicochemical; details: compared to other known salts of sitagliptin
[2] = Hygroscopicity studies (water content after storage at 43 %, 75 % and 93 % relative humidity); type: physicochemical; details: for change during the hygroscopicity studies: 43 %, 75 % and 93 % relative humidity, confirmed by DSC of samples kept at 93 % relative humidity for 2 weeks; for Initial water content: initial sample; for Hygroscopicity 2 weeks 43 % rh: 2 weeks at 43 % rh; for Hygroscopicity 2 weeks 43 % rh / Hygroscopicity 2 weeks 75 % rh / Hygroscopicity 2 weeks 93 % rh: % Equilibrium moisture content, ss = semi solid state of sample, β = solid first changed into liquid and solidified again; for Hygroscopicity 2 weeks 75 % rh: 2 weeks at 75 % rh; for Hygroscopicity 2 weeks 93 % rh: 2 weeks at 93 % rh
From the text: The salts of the present invention and the free base were studied under three different humidity conditions (43 % relative humidity, 75 % relative humidity, and 93 % relative humidity).

[3] = Stability studies (storage at 60 °C in closed bottles or at 40 °C / 75 % RH in an open bottle; related substances by HPLC); details: for Initial Related Substances: before storage; for Related Substances 2 W 40°C/75 % RH open / Related Substances 2 W 60°C closed: 2 weeks, 20160 min; for Related Substances 4 w 40°C/75 % RH closed / Related Substances 4 w 40°C/75 % RH open / Related Substances 4 w 60°C Closed bottle: 4 weeks, 40320 min; for Related Substances 12 weeks 40°C/75 % RH closed bottle / Related Substances 12 weeks 40°C/75 % RH open bottle: 120960 min
[4] = Dissolution of salts (done on 1 capsule each); type: physicochemical; details: for Dissolution in capsule in acetate buffer pH 4.5 medium at 50 rpm at 10 min (% release as free base) / Dissolution in capsule in acetate buffer pH 4.5 medium at 50 rpm at 30 min (% release as free base): acetate buffer pH 4.5, 50 rpm; for Dissolution in capsule in phosphate buffer pH 7.4 medium at 50 rpm at 10 min (% release as free base) / Dissolution in capsule in phosphate buffer pH 7.4 medium at 50 rpm at 30 min (% release as free base): phosphate buffer pH 7.4, 50 rpm
From the text: Table 28: Dissolution results of salts (Done on 1 capsule each)

[5] = solid; for Related Substances 4 w 40°C/75 % RH closed / Related Substances 4 w 40°C/75 % RH open / Related Substances 4 w 60°C Closed bottle: 672 h; for Related Substances 12 weeks 40°C/75 % RH closed bottle / Related Substances 12 weeks 40°C/75 % RH open bottle: 2016 h; for Related Substances 2 W 40°C/75 % RH open / Related Substances 2 W 60°C closed: 336 h; for Related Substances 2 W 60°C closed / Related Substances 4 w 60°C Closed bottle: closed bottle
[6] = Evaluation of sitagliptin salts for processability; details: for Appearance: powder
From the text: Table 29: Evaluation of different Sitagliptin salts for processability

pH of aqueous solution = type: physicochemical; details: 2 % aqueous solution

Molecule: N[C@@H](CC(=O)N1CCn2c(nnc2C(F)(F)F)C1)Cc1cc(F)c(F)cc1F [sulfate (non solvated), Sitagliptin Sulfate Form II]
- solubility in water [1]: very high solubility in water
- change during the hygroscopicity studies ([2]; listed as sitagliptin sulfate (non solvated)): increase in water content corresponding to conversion of hemihydrate to dihydrate
- stability (degradation, related substances by HPLC) ([3]; closed bottle, four weeks at 60 °C, listed as sitagliptin hemisulphate): excellent stability
- stability (degradation, related substances by HPLC) ([3]; closed bottle, two weeks at 60 °C): stable

Molecule: Amorphous Sitagliptin Citrate [citrate (amorphous)]
- Dissolution in capsule in pH 6.8 buffer at 50 rpm at 10 min (% release as free base) [4]: 62.4%
- Dissolution in capsule in pH 6.8 buffer at 50 rpm at 30 min (% Release as free base) [4]: 89.47%
- Dissolution in capsule in water medium at 50 rpm at 10 min (% release as free base) [4]: 75.89%
- Dissolution in capsule in water medium at 50 rpm at 30 min (% release as free base) [4]: 94.23%
- solid form conversion on humidity storage ([2]; two weeks storage at 93% relative humidity): partial conversion into the respective crystalline form

Molecule: Sitagliptin Fumarate Form I [D:Fumarate I]
- Hygroscopicity (water content) ([2]; 2 weeks 43 % rh): 1.058%
- Hygroscopicity (water content) ([2]; 2 weeks 75 % rh): 1.078%
- Hygroscopicity (water content) ([2]; 2 weeks 93 % rh): 1.168%
- change during the hygroscopicity studies [2]: did not show much change
- Initial water content ([2]; before humidity storage): 0.89%
- Initial Related Substances [3]: 0%
- Related Substances 4 w 40°C/75 % RH closed [5]: 0.07%
- Related Substances 12 weeks 40°C/75 % RH closed bottle [5]: 0.13%
- Related Substances 2 W 40°C/75 % RH open [5]: 0.01%
- Related Substances 4 w 40°C/75 % RH open [5]: 0.06%
- Related Substances 12 weeks 40°C/75 % RH open bottle [5]: 0.11%
- Related Substances 2 W 60°C closed [5]: 0.01%
- Related Substances 4 w 60°C Closed bottle [5]: 0.03%

Molecule: Sitagliptin succinate Form I [F: Succinate I]
- Hygroscopicity (water content) ([2]; 2 weeks 43 % rh): 1.36%
- Hygroscopicity (water content) ([2]; 2 weeks 75 % rh): 1.78%
- Hygroscopicity (water content) ([2]; 2 weeks 93 % rh): 19.58** %
- Initial water content ([2]; before humidity storage): 0.90%
- Initial Related Substances [3]: 0.14%
- Related Substances 4 w 40°C/75 % RH closed [5]: 0.29%
- Related Substances 12 weeks 40°C/75 % RH closed bottle [5]: 0.23%
- Related Substances 2 W 40°C/75 % RH open [5]: 0.13%
- Related Substances 4 w 40°C/75 % RH open [5]: 0.25%
- Related Substances 12 weeks 40°C/75 % RH open bottle [5]: 0.16%
- Related Substances 2 W 60°C closed [5]: 0.30%
- Related Substances 4 w 60°C Closed bottle [5]: 0.58%

Molecule: N[C@@H](CC(=O)N1CCn2c(nnc2C(F)(F)F)C1)Cc1cc(F)c(F)cc1F [M: Phosphate]
- Flowability [6]: Good
- Poured density, m/V0 [6]: 0.52 g/ml
- Sticking tendency [6]: None
- Tapped density, m/V1250 [6]: 0.57 g/mL
- Apparent Volume V0 [6]: 190 mL
- Apparent Volume V10 [6]: 185 mL
- Apparent Volume V500 [6]: 175 mL
- Apparent Volume V1250 [6]: 174 mL
- Appearance [6]: White to off-white powder, fine powder, few agglomerates.
- Hygroscopicity 2 weeks 43 % rh [2]: 3.69%
- Hygroscopicity 2 weeks 75 % rh [2]: 3.67%
- Hygroscopicity 2 weeks 93 % rh [2]: 3.73%
- Initial water content ([2]; before storage): 3.59%

Molecule: N[C@@H](CC(=O)N1CCn2c(nnc2C(F)(F)F)C1)Cc1cc(F)c(F)cc1F [HCl II]
- Dissolution in capsule in acetate buffer pH 4.5 medium at 50 rpm at 10 min (% release as free base) [4]: 93.89%
- Dissolution in capsule in acetate buffer pH 4.5 medium at 50 rpm at 30 min (% release as free base) [4]: 100%
- Dissolution in capsule in pH 6.8 buffer at 50 rpm at 10 min (% release as free base) [4]: 90.13%
- Dissolution in capsule in pH 6.8 buffer at 50 rpm at 30 min (% Release as free base) [4]: 91.21%
- Dissolution in capsule in phosphate buffer pH 7.4 medium at 50 rpm at 10 min (% release as free base) [4]: 93.63%
- Dissolution in capsule in phosphate buffer pH 7.4 medium at 50 rpm at 30 min (% release as free base) [4]: 99.67%

Molecule: N[C@@H](CC(=O)N1CCn2c(nnc2C(F)(F)F)C1)Cc1cc(F)c(F)cc1F [sitagliptin hydrochloride, Sitagliptin Hydrochloride Form II]
- hygroscopicity ([2]; prolonged storage at 93 % relative humidity): not hygroscopic
- stability (degradation, related substances by HPLC) ([3]; closed bottle, four weeks at 60 °C): excellent stability
- pH (pH of aqueous solution): 5.8 ± 0.1

Molecule: Sitagliptin Malate
- Dissolution in capsule in pH 6.8 buffer at 50 rpm at 10 min (% release as free base) [4]: 84.72%
- Dissolution in capsule in pH 6.8 buffer at 50 rpm at 30 min (% Release as free base) [4]: 90.94%
- Dissolution in capsule in water medium at 50 rpm at 10 min (% release as free base) [4]: 90.22%
- Dissolution in capsule in water medium at 50 rpm at 30 min (% release as free base) [4]: 98.89%
- change during the hygroscopicity studies [2]: did not show much change

Molecule: N[C@@H](CC(=O)N1CCn2c(nnc2C(F)(F)F)C1)Cc1cc(F)c(F)cc1F [O: Sulfate II]
- Flowability [6]: Good
- Poured density, m/V0 [6]: 0.483 g/ml
- Sticking tendency [6]: Very low
- Tapped density, m/V1250 [6]: 0.508 g/mL
- Apparent Volume V0 [6]: 40 mL
- Apparent Volume V10 [6]: 40 mL
- Apparent Volume V500 [6]: 38 mL
- Apparent Volume V1250 [6]: 38 mL
- Appearance [6]: White to off-white powder with big, coarse and hard particles.
- Hygroscopicity 2 weeks 43 % rh [2]: 2.59%
- Hygroscopicity 2 weeks 75 % rh [2]: 7.1%
- Hygroscopicity 2 weeks 93 % rh [2]: 7.33%
- Initial water content ([2]; before storage): 1.88%
- Related Substances 2 W 40°C/75 % RH open [3]: 0.23%
- Related Substances 2 W 60°C closed [3]: 0.20%
- Related Substances 4 w 40°C/75 % RH closed [3]: 0.24%
- Related Substances 4 w 40°C/75 % RH open [3]: 0.36%
- Related Substances 4 w 60°C Closed bottle ([3]; closed bottle): 0.31%
- Related Substances 12 weeks 40°C/75 % RH closed bottle ([3]; closed bottle): 0.25%
- Related Substances 12 weeks 40°C/75 % RH open bottle ([3]; open bottle): 0.46%
- Initial Related Substances [3]: 0.20%

Molecule: N[C@@H](CC(=O)N1CCn2c(nnc2C(F)(F)F)C1)Cc1cc(F)c(F)cc1F [Phosphate H2O Ref]
- Dissolution in capsule in acetate buffer pH 4.5 medium at 50 rpm at 10 min (% release as free base) [4]: 48.08%
- Dissolution in capsule in acetate buffer pH 4.5 medium at 50 rpm at 30 min (% release as free base) [4]: 98.48%
- Dissolution in capsule in pH 6.8 buffer at 50 rpm at 10 min (% release as free base) [4]: 86.65%
- Dissolution in capsule in pH 6.8 buffer at 50 rpm at 30 min (% Release as free base) [4]: 91.12%
- Dissolution in capsule in phosphate buffer pH 7.4 medium at 50 rpm at 10 min (% release as free base) [4]: 80.81%
- Dissolution in capsule in phosphate buffer pH 7.4 medium at 50 rpm at 30 min (% release as free base) [4]: 99.18%
- Dissolution in capsule in water medium at 50 rpm at 10 min (% release as free base) [4]: 46.63%
- Dissolution in capsule in water medium at 50 rpm at 30 min (% release as free base) [4]: 96.30%

Molecule: N[C@@H](CC(=O)N1CCn2c(nnc2C(F)(F)F)C1)Cc1cc(F)c(F)cc1F [Base, 7-[(3R)-3-amino-1-oxo-4-(2,4,5-trifluorophenyl)butyl)-5,6,7,8-tetrahydro-3-(trifluoromethyl)-1,2,4-triazolo[4,3-a]pyrazine, reference compound]
- Hygroscopicity (water content) ([2]; 2 weeks 43 % rh): 0.19%
- Hygroscopicity (water content) ([2]; 2 weeks 75 % rh): 0.22%
- Hygroscopicity (water content) ([2]; 2 weeks 93 % rh): 0.3%
- change during the hygroscopicity studies ([2]; listed as free base): did not show much change
- Initial water content ([2]; before humidity storage): 0.19%
- Related Substances 2 W 40°C/75 % RH open [3]: 0.27%
- Related Substances 2 W 60°C closed [3]: 0.37%
- Related Substances 4 w 40°C/75 % RH closed [3]: 0.46%
- Related Substances 4 w 40°C/75 % RH open [3]: 0.39%
- Related Substances 4 w 60°C Closed bottle ([3]; closed bottle): 0.46%
- Related Substances 12 weeks 40°C/75 % RH closed bottle ([3]; closed bottle): 0.52%
- Related Substances 12 weeks 40°C/75 % RH open bottle ([3]; open bottle): 0.39%
- stability (degradation, related substances by HPLC) ([3]; closed bottle, four weeks at 60 °C, listed as free base): stable
- stability (degradation, related substances by HPLC) ([3]; closed bottle, two weeks at 60 °C, listed as free base): stable
- Initial Related Substances [3]: 0.36%
- stability (degradation, related substances by HPLC) ([3]; open bottle, twelve weeks at 40 °C and 75 % RH, listed as free base): stable
